According to publication PMC4577729, “7-(Pyrazol-4-yl)-3H-imidazo[4,5-b]pyridine-based derivatives for kinase inhibition: Co-crystallisation studies with Aurora-A reveal distinct differences in the orientation of the pyrazole N1-substituent” (Bioorganic & Medicinal Chemistry Letters, 2015):

Assays:
Assay in all cases: Kinase selectivity profiling
Format in all cases: biochemical
MELK = MELK (Homo sapiens, UniProt Q14680); conditions: 1 µM, assay duplicates
Description: (§1) [20] Kinase selectivity profiling for compounds 7a, 7d, 14d and 14g was carried out at the International Centre for Protein Kinase Profiling, Division of Signal Transduction Therapy, University of Dundee.
(§2) Table S1: Kinase selectivity profiling of compounds 7a and 7d in a 102-kinase panel screened at a concentration of 1 µM.
(§3) Table S2: Kinase selectivity profiling of compounds 14d and 14g in a 105-kinase panel screened at a concentration of 1 µM.

PHK = PHK (Homo sapiens, UniProt Q16816); conditions: 1 µM, assay duplicates
Description: as §1, §2, §3

IR = IR (Homo sapiens, UniProt P06213); conditions: 1 µM, assay duplicates
Description: as §1, §2, §3

CHK1 = CHK1 (Homo sapiens, UniProt O14757); conditions: 1 µM, assay duplicates
Description: as §1, §2, §3

DYRK3 = DYRK3 (Homo sapiens, UniProt O43781); conditions: 1 µM, assay duplicates
Description: as §1, §2, §3

TrkA = TrkA (Homo sapiens, UniProt P04629); conditions: for TrkA inhibition: 1 μM; for TrkA % activity remaining: 1 µM, assay duplicates
Description: as §1, §2, §3

RIPK2 = RIPK2 (Homo sapiens, UniProt O43353); conditions: 1 µM, assay duplicates
Description: as §1, §2, §3

Lck = Lck (Homo sapiens, UniProt P06239); conditions: 1 µM, assay duplicates
Description: as §1, §2, §3

PRAK = PRAK (Homo sapiens, UniProt Q8IW41); conditions: 1 µM, assay duplicates
Description: as §1, §2, §3

PAK5 = PAK5 (Homo sapiens, UniProt Q9P286); conditions: 1 µM, assay duplicates
Description: as §1, §2, §3

HIPK3 = HIPK3 (Homo sapiens, UniProt Q9H422); conditions: 1 µM, assay duplicates
Description: as §1, §2, §3

DYRK1A = DYRK1A (Homo sapiens, UniProt Q13627); conditions: 1 µM, assay duplicates
Description: as §1, §2, §3

BRSK1 = BRSK1 (Homo sapiens, UniProt Q8TDC3); conditions: 1 µM, assay duplicates
Description: as §1, §2, §3

PAK2 = PAK2 (Homo sapiens, UniProt Q13177); conditions: 1 µM, assay duplicates
Description: as §1, §2, §3

MARK2 = MARK2 (Homo sapiens, UniProt Q7KZI7); conditions: 1 µM, assay duplicates
Description: as §1, §2, §3

SmMLCK = SmMLCK (Homo sapiens, UniProt Q15746); conditions: 1 µM, assay duplicates
Description: as §1, §2, §3

MAPKAP-K3 = MAPKAP-K3 (Homo sapiens, UniProt Q16644); conditions: 1 µM, assay duplicates
Description: as §1, §2, §3

ERK2 = ERK2 (Homo sapiens, UniProt P28482); conditions: 1 µM, assay duplicates
Description: as §1, §2, §3

LKB1 = LKB1 (Homo sapiens, UniProt Q15831); conditions: 1 µM, assay duplicates
Description: as §1, §2, §3

PDK1 = PDK1 (Homo sapiens, UniProt O15530); conditions: 1 µM, assay duplicates
Description: as §1, §2, §3

CSK = CSK (Homo sapiens, UniProt P41240); conditions: 1 µM, assay duplicates
Description: as §1, §2, §3

GCK = GCK (Homo sapiens, UniProt Q12851); conditions: 1 µM, assay duplicates
Description: as §1, §2, §3

YES1 = YES1 (Homo sapiens, UniProt P07947); conditions: 1 µM, assay duplicates
Description: as §1, §2, §3

EPH-A4 = EPH-A4 (Homo sapiens, UniProt P54764); conditions: 1 µM, assay duplicates
Description: as §1, §2, §3

EF2K = EF2K (Homo sapiens, UniProt O00418); conditions: 1 µM, assay duplicates
Description: as §1, §2, §3

NEK2a = NEK2a (Homo sapiens, UniProt P51955); conditions: 1 µM, assay duplicates
Description: as §1, §2, §3

MARK1 = MARK1 (Homo sapiens, UniProt Q9P0L2); conditions: 1 µM, assay duplicates
Description: as §1, §2, §3

IRAK4 = IRAK4 (Homo sapiens, UniProt Q9NWZ3); conditions: 1 µM, assay duplicates
Description: as §1, §2, §3

IKKb = IKKb (Homo sapiens, UniProt O14920); conditions: 1 µM, assay duplicates
Description: as §1, §2, §3

S6K1 = S6K1 (Homo sapiens, UniProt P23443); conditions: 1 µM, assay duplicates
Description: as §1, §2, §3

IGF-1R = IGF-1R (Homo sapiens, UniProt P08069); conditions: 1 µM, assay duplicates
Description: as §1, §2, §3

RSK1 = RSK1 (Homo sapiens, UniProt Q15418); conditions: 1 µM, assay duplicates
Description: as §1, §2, §3

p38d MAPK = p38d MAPK (Homo sapiens, UniProt O15264); conditions: 1 µM, assay duplicates
Description: as §1, §2, §3

SRPK1 = SRPK1 (Homo sapiens, UniProt Q96SB4); conditions: 1 µM, assay duplicates
Description: as §1, §2, §3

MINK1 = MINK1 (Homo sapiens, UniProt Q8N4C8); conditions: 1 µM, assay duplicates
Description: as §1, §2, §3

p38g MAPK = p38g MAPK (Homo sapiens, UniProt P53778); conditions: 1 µM, assay duplicates
Description: as §1, §2, §3

EPH-B3 = EPH-B3 (Homo sapiens, UniProt P54753); conditions: 1 µM, assay duplicates
Description: as §1, §2, §3

PIM1 = PIM1 (Homo sapiens, UniProt P11309); conditions: 1 µM, assay duplicates
Description: as §1, §2, §3

PKA = PKA (Homo sapiens, UniProt P17612); conditions: 1 µM, assay duplicates
Description: as §1, §2, §3

FGF-R1 = FGF-R1 (Homo sapiens, UniProt P11362); conditions: 1 µM, assay duplicates
Description: as §1, §2, §3

PLK1 = PLK1 (Homo sapiens, UniProt P53350); conditions: 1 µM, assay duplicates
Description: as §1, §2, §3

PKBa = PKBa (Homo sapiens, UniProt P31749); conditions: 1 µM, assay duplicates
Description: as §1, §2, §3

JNK2 = JNK2 (Homo sapiens, UniProt P45984); conditions: 1 µM, assay duplicates
Description: as §1, §2, §3

Chain of TrkA (P04629 33-796): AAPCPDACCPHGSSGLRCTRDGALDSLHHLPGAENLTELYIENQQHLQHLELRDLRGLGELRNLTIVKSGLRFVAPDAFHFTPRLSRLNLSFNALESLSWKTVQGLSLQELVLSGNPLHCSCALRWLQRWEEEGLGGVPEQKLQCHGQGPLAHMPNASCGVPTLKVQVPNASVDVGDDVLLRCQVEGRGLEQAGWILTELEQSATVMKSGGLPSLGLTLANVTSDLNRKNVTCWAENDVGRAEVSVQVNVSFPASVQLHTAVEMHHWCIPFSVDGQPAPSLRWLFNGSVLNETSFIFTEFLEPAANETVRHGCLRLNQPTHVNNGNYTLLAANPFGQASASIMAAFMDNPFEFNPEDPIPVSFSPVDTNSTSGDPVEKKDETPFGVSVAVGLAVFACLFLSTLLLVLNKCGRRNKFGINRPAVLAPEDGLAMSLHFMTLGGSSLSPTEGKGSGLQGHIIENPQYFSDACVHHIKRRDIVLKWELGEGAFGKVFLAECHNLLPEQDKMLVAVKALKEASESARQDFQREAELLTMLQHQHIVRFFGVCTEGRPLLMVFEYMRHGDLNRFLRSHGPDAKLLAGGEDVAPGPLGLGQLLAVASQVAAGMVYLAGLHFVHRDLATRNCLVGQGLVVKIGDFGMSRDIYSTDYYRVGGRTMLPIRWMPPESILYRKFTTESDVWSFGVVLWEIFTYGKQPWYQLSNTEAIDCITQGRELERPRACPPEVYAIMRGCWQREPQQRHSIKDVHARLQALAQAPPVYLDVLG
Chain of JNK2 (P45984 whole entry): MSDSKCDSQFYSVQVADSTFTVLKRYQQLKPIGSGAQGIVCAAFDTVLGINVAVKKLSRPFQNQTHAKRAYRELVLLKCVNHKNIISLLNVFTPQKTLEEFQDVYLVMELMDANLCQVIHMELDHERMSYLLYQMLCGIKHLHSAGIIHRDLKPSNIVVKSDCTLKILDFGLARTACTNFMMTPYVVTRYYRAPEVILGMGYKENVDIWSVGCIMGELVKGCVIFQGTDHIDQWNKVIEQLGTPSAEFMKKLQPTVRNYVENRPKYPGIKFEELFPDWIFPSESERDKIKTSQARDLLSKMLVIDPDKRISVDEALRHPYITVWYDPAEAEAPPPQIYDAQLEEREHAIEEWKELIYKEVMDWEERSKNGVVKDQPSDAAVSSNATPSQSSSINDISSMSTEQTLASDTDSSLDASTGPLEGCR
Chain of RSK1 (Q15418 whole entry): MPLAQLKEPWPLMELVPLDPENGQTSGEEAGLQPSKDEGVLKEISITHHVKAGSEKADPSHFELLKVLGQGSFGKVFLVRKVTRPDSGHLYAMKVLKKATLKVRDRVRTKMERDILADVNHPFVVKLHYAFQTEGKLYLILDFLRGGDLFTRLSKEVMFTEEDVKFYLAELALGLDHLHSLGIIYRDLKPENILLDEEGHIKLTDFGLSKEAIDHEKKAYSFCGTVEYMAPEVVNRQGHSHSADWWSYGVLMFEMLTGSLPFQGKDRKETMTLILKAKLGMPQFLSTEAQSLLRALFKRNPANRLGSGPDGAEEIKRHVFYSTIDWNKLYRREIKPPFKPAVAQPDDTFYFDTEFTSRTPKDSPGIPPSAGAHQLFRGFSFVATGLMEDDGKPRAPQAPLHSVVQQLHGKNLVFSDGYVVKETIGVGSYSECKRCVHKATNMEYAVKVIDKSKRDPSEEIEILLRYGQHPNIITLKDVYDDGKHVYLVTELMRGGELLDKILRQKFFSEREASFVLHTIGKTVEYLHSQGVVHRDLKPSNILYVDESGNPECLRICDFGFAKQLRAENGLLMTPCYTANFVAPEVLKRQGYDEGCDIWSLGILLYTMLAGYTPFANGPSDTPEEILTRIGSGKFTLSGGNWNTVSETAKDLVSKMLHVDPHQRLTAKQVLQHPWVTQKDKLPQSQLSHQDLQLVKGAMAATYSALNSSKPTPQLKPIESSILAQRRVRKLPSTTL
Chain of ERK2 (P28482 whole entry): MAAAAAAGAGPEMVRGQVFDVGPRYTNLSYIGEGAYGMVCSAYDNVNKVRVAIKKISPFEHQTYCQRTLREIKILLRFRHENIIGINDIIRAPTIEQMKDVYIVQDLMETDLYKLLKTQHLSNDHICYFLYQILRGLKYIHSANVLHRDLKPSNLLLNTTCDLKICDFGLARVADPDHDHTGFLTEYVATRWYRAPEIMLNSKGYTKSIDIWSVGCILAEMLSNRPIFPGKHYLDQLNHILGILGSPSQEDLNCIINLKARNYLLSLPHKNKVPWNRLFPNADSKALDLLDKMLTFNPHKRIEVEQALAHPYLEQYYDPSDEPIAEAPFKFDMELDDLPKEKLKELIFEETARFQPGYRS
Chain of SmMLCK (Q15746 923-1914): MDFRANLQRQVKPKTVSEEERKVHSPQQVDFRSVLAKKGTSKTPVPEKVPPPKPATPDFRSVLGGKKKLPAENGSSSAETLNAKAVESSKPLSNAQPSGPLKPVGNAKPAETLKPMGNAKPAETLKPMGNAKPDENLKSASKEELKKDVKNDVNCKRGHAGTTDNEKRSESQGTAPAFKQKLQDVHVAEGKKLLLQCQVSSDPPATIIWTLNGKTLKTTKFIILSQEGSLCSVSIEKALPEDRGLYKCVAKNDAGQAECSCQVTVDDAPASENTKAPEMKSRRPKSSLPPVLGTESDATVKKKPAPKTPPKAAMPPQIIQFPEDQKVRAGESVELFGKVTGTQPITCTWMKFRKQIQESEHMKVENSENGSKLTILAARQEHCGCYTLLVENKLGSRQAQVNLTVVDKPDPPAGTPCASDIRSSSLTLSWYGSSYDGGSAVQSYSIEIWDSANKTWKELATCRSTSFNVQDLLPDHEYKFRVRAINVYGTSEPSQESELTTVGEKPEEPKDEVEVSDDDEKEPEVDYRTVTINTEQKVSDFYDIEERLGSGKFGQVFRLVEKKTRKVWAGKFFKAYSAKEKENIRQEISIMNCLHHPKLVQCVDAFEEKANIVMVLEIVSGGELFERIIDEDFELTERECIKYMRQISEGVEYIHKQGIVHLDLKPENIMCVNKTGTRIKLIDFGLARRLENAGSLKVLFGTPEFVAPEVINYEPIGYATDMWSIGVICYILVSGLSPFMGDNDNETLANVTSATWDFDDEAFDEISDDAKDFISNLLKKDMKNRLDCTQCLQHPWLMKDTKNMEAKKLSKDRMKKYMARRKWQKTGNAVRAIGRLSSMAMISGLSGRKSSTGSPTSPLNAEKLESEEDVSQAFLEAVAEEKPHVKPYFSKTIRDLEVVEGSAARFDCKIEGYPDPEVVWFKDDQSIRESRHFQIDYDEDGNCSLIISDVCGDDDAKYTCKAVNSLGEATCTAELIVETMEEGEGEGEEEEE
Chain of MELK (Q14680 whole entry): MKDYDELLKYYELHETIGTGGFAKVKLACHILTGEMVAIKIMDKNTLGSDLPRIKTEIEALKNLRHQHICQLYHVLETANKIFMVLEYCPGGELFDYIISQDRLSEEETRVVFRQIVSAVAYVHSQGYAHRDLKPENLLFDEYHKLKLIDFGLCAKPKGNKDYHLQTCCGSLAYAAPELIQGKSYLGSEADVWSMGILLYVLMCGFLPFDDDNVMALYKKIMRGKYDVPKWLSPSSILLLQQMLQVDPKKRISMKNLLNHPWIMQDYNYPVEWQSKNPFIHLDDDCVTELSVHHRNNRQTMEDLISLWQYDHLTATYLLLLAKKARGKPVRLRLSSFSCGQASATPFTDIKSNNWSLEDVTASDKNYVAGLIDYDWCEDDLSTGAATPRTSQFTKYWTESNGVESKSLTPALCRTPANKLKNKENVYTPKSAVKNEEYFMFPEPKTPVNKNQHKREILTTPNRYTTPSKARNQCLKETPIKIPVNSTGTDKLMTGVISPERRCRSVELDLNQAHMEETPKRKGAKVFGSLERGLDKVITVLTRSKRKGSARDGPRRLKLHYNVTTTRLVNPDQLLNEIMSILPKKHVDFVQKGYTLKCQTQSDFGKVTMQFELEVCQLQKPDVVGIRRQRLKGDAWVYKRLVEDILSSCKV
Chain of PLK1 (P53350 whole entry): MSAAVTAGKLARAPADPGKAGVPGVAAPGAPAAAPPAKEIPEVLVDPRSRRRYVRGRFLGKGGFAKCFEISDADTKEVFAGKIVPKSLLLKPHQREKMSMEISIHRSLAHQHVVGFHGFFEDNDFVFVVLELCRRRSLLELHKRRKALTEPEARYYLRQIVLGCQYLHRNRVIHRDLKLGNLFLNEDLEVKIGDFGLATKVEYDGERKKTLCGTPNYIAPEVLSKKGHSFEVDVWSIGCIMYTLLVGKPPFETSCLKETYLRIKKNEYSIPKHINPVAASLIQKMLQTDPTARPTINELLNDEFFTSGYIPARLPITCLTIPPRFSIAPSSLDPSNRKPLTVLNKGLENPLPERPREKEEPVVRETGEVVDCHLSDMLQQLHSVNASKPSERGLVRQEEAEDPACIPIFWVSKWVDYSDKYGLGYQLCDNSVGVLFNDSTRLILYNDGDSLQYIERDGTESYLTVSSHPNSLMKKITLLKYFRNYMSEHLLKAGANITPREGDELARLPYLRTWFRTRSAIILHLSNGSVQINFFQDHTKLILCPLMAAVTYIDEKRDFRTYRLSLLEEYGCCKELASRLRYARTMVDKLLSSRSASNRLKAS
Chain of NEK2a (P51955 whole entry): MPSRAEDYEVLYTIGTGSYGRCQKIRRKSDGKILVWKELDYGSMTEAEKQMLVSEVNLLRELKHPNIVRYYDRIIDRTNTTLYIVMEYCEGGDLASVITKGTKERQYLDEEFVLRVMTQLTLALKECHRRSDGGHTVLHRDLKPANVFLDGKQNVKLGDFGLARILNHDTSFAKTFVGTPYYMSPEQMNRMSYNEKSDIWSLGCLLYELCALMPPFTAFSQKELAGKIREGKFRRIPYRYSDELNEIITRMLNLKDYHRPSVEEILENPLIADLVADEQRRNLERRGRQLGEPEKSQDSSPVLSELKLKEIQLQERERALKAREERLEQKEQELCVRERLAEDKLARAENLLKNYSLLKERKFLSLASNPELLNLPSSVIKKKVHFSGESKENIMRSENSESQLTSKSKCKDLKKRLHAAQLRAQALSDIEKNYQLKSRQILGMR

## Cc1nn(C)cc1-c1nc2c(-c3cnn(Cc4ccccc4)c3)c(Cl)cnc2[nH]1 [Compound 7a]
MELK
  MELK % activity remaining: 19%
PHK
  PHK % activity remaining: 17%
IR
  IR % activity remaining: 3%
CHK1
  CHK1 % activity remaining: 68%
DYRK3
  DYRK3 % activity remaining: 25%
TrkA
  TrkA inhibition: greater than 80%
  TrkA % activity remaining: 6%
RIPK2
  RIPK2 % activity remaining: 40%
Lck
  Lck % activity remaining: 61%
PRAK
  PRAK % activity remaining: 83%
PAK5
  PAK5 % activity remaining: 36%
HIPK3
  HIPK3 % activity remaining: 9%
DYRK1A
  DYRK1A % activity remaining: 3%
BRSK1
  BRSK1 % activity remaining: 36%
PAK2
  PAK2 % activity remaining: 82%
MARK2
  MARK2 % activity remaining: 31%
SmMLCK
  SmMLCK % activity remaining: 51%
MAPKAP-K3
  MAPKAP-K3 % activity remaining: 69%
ERK2
  ERK2 % activity remaining: 16%
LKB1
  LKB1 % activity remaining: 49%
PDK1
  PDK1 % activity remaining: 52%
CSK
  CSK % activity remaining: 59%
GCK
  GCK % activity remaining: 22%
YES1
  YES1 % activity remaining: 12%
EPH-A4
  EPH-A4 % activity remaining: 54%
EF2K
  EF2K % activity remaining: 94%
NEK2a
  NEK2a % activity remaining: 67%
MARK1
  MARK1 % activity remaining: 31%
IRAK4
  IRAK4 % activity remaining: 28%
IKKb
  IKKb % activity remaining: 48%
S6K1
  S6K1 % activity remaining: 18%
IGF-1R
  IGF-1R % activity remaining: 10%
RSK1
  RSK1 % activity remaining: 25%
p38d MAPK
  p38d MAPK % activity remaining: 18%
SRPK1
  SRPK1 % activity remaining: 73%
MINK1
  MINK1 % activity remaining: 28%
p38g MAPK
  p38g MAPK % activity remaining: 17%
EPH-B3
  EPH-B3 % activity remaining: 99%
PIM1
  PIM1 % activity remaining: 71%
PKA
  PKA % activity remaining: 72%
FGF-R1
  FGF-R1 % activity remaining: 5%
PLK1
  PLK1 % activity remaining: 75%
PKBa
  PKBa % activity remaining: 70%
JNK2
  JNK2 % activity remaining: 17%

## Cc1cc(Cn2cc(-c3c(Cl)cnc4[nH]c(-c5cn(C)nc5C)nc34)cn2)no1 [Compound 14d]
MELK
  MELK % activity remaining: 49%
PHK
  PHK % activity remaining: 27%
IR
  IR % activity remaining: 53%
CHK1
  CHK1 % activity remaining: 52%
DYRK3
  DYRK3 % activity remaining: 30%
TrkA
  TrkA inhibition: ≥ 80%
  TrkA % activity remaining: 15%
RIPK2
  RIPK2 % activity remaining: 49%
Lck
  Lck % activity remaining: 34%
PRAK
  PRAK % activity remaining: 100%
PAK5
  PAK5 % activity remaining: 41%
HIPK3
  HIPK3 % activity remaining: 49%
DYRK1A
  DYRK1A % activity remaining: 9%
BRSK1
  BRSK1 % activity remaining: 61%
PAK2
  PAK2 % activity remaining: 102%
MARK2
  MARK2 % activity remaining: 28%
SmMLCK
  SmMLCK % activity remaining: 43%
MAPKAP-K3
  MAPKAP-K3 % activity remaining: 103%
ERK2
  ERK2 % activity remaining: 32%
LKB1
  LKB1 % activity remaining: 62%
PDK1
  PDK1 % activity remaining: 49%
CSK
  CSK % activity remaining: 83%
GCK
  GCK % activity remaining: 40%
YES1
  YES1 % activity remaining: 18%
EPH-A4
  EPH-A4 % activity remaining: 51%
EF2K
  EF2K % activity remaining: 102%
NEK2a
  NEK2a % activity remaining: 71%
MARK1
  MARK1 % activity remaining: 38%
IRAK4
  IRAK4 % activity remaining: 33%
IKKb
  IKKb % activity remaining: 63%
S6K1
  S6K1 % activity remaining: 12%
IGF-1R
  IGF-1R % activity remaining: 5%
RSK1
  RSK1 % activity remaining: 28%
p38d MAPK
  p38d MAPK % activity remaining: 41%
SRPK1
  SRPK1 % activity remaining: 31%
MINK1
  MINK1 % activity remaining: 86%
p38g MAPK
  p38g MAPK % activity remaining: 36%
EPH-B3
  EPH-B3 % activity remaining: 54%
PIM1
  PIM1 % activity remaining: 96%
PKA
  PKA % activity remaining: 63%
FGF-R1
  FGF-R1 % activity remaining: 7%
PLK1
  PLK1 % activity remaining: 115%
PKBa
  PKBa % activity remaining: 99%
JNK2
  JNK2 % activity remaining: 48%
